Measured values published in patent US20070265273A1, “Pyrimidin-2-Amine Derivatives and Their Use as A2b Adenosine Receptor Antagonists” (priority 2003, published 2007).
Like-named read-outs stand apart in the source and are kept apart here. Each block holds one molecule with its values, some of them ahead of it.

How the values were obtained:
[1] = target: T1, human recombinant A1 receptors (Homo sapiens, UniProt P30542); assay: Adenosine 1 receptor subtype competition radioligand binding assay; settings: 1 h, [3H]-DPCPX, CHO-K1 membranes, read-out: Binding human A1, % @ 1 μM (column headed Ki (nM))
T1 construct: host or cells: CHO-K1
T1 sequence (P30542 1-326): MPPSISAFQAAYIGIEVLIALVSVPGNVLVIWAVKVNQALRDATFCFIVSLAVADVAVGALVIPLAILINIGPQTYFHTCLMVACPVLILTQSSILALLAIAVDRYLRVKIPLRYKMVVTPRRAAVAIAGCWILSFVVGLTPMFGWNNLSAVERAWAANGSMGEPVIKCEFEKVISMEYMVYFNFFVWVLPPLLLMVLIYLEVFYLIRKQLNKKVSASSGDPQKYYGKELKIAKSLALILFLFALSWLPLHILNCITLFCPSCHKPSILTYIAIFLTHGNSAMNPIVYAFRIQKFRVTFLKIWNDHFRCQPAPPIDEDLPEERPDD
Experimental: Adenosine I Receptor Subtype Competition Radioligand Binding Assay
CHO-K1 cells expressing human recombinant A1 receptors were purchased from Euroscreen (Belgium). For membrane preparation, cells were collected from tissue culture plates using a cell scraper, resuspended in 10-15 ml of homogenization buffer (Tris-HCl 15 mM pH 7.5, MgCl2 2 mM, EDTA 0.3 mM, EGTA 1 mM), homogenized, and centrifuged at 40.000 g for 25 minutes. The resulting pellet was resuspended in the same buffer and centrifuged again for 25 minutes. Finally, the pellet was resuspended in 500 μl of storage buffer (Tris-HCl 7.5 mM pH 7.5, MgCl2 12.5 mM, EDTA 0.3 mM, EGTA 1 mM, sucrose 250 mM) where the total protein content was determined.
Competition assays were carried out incubating 15 μg of A1-membrane preparations, 2 nM [^3H]-DPCPX (Amersham) as radioligand and 10 μM of unlabeled DPCPX ligand, in a total volume of 100 μl of buffer (Hepes 20 mM pH 7.4, NaCl 100 mM, MgCl2 10 mM, 2 U/ml adenosin deaminase) for 1 h at 25° C. Samples were filtered and washed 4 times with 250 μl of buffer (Hepes 20 mM pH 7.4, NaCl 100 mM, MgCl2 10 mM) using plates (Millipore MAFCN0B50) preincubated for 15 min. in 250 μl of the same buffer. Samples were counted using 30 μl of LSC Universol (ICN) in a Wallac 1450 Microbeta counter. Non specific binding was tested using 10 μM R-PIA.

[2] = target: T2, human recombinant A2A receptor (Homo sapiens, UniProt P29274); assay: Adenosine 2A receptor subtype competition radioligand binding assay; settings: [3H]-ZM241385, Hela cell membranes
T2 construct: expressed in transfected cells; host or cells: HeLa (stably transfected)
T2 sequence (P29274 whole entry): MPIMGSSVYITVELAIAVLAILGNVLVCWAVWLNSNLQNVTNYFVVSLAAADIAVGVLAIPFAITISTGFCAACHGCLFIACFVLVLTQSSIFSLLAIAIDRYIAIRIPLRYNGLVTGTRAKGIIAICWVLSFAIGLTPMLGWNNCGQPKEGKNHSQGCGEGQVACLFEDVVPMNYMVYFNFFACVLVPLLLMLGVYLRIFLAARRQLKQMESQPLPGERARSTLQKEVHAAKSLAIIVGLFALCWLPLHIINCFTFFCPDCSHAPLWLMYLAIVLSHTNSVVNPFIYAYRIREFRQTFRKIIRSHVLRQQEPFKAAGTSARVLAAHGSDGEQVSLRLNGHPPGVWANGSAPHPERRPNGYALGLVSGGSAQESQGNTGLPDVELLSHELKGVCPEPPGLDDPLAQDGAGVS
Experimental: Adenosine 2A Receptor Subtype Competition Radioligand Binding Assay
(§1) Membranes were prepared from Hela cells stably transfected with the human recombinant A2A receptor. For membrane preparation, cells were collected from tissue culture plates using a cell scraper, resuspended in 10-15 ml homogenization buffer (Tris-HCl 5 mM, EDTA 2 mM), homogenized, and centrifuged at 1.000 g. for 10 min. at 4° C. The supernatant was then recovered and centrifuged at 50.000 g for 1 h. at 4° C. Finally, the pellet was resuspended in 100-500 μl storage buffer (Tris-HCl 50 mM pH 7.4) where the total protein content was determined.
Competition assays were carried out incubating 5 μg of A2A-membranes, 3 nM [^3H]-ZM241385 (Tocris) as radioligand and 50 μM of unlabeled ZM241385 ligand, in a total volume of 100 μl of buffer (TrisHCl 50 μM pH 7.4, EDTA 1 mM, MgCl2 10 mM, 2 U/ml adenosin deaminase) for 30 minutes at 25° C. Samples were then filtered and washed 4 times with 250 μl of buffer (TrisHCl 50 μM pH 7.4, EDTA 1 mM, MgCl2 10 mM) using plates (Millipore MAFCN0B50) preincubated for 15 min. in 250 μl of the same buffer. Samples were counted using 30 μl of LSC Universol (ICN) in a Wallac 1450 Microbeta counter. Non specific binding was tested using 50 μM NECA.

[3] = target: T3, human recombinant A3 receptor (Homo sapiens, UniProt P0DMS8); assay: Adenosine 3 receptor subtype competition radioligand binding assay
T3 construct: expressed in transfected cells; host or cells: HeLa (stably transfected)
T3 sequence (P0DMS8 1-318): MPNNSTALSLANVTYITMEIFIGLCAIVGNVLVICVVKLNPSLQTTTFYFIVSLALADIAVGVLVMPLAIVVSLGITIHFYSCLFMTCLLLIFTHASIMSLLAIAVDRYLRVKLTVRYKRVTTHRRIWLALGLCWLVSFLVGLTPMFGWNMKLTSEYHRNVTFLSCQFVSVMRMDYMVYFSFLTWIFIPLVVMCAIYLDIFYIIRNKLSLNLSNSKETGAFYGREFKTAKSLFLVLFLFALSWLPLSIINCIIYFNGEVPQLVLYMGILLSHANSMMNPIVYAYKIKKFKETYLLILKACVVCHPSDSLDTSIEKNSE
Experimental: Adenosine 3 Receptor Subtype Competition Radioligand Binding Assay
as §1, with “A3” for “A2A”, “ml of” for “ml”, “μl of” for “μl”
Competition assays were carried out incubating 100 μg of A3-membranes, 30 nM [^3H]-NECA (Amersham) as radioligand and 50 μM of unlabeled NECA ligand, in a total volume of 100 μl of buffer (Tris-HCl 50 mM pH 7.4, MgCl2 5 mM, EDTA 1 mM, 2 U/ml adenosine deaminase) for 3 hours at 25° C. Samples were filtered 4 times with 250 μl of buffer (Tris-HCl 50 mM pH 7.4) using plates (Millipore MAFBN0B50) preincubated for 15 min. in 250 μl of the same buffer. Samples were counted using 30 μl of LSC Universol (ICN) in a Wallac 1450 Microbeta counter. Non specific binding was tested using 100 μM of R-PIA.

[4] = [3H]-NECA, Hela cell membranes, read-out: Binding human A3 Ki

Structure (SMILES): c1cncc(Nc2ncc(-c3ccncn3)c(-c3ccco3)n2)c1 [Example 1, 4′-(2-Furyl)-N-pyridin-3-yl-4,5′-bipyrimidin-2′-amine]
- inhibition at 1 µM [1]: 14%
- Ki [2]: 2540 nM
- Ki [3, 4]: 1100 nM

Structure (SMILES): COc1ccc(Nc2ncc(-c3ccncn3)c(-c3ccco3)n2)cn1 [Example 2, 4′-(2-Furyl)-N-(6-methoxypyridin-3-yl)-4,5′-bipyrimidin-2′-amine]
- inhibition at 1 µM [1]: 5%
- Binding human A2A, % @ 1 μM (column headed Ki (nM)) [2]: 14% @ 1 μM
- Ki [3]: 4320 nM

Structure (SMILES): Fc1ccc(Nc2ncc(-c3ccncn3)c(-c3ccco3)n2)cn1 [Example 4, N-(6-Fluoropyridin-3-yl)-4′-(2-furyl)-4,5′-bipyrimidin-2′-amine]
- inhibition at 1 µM [1]: 30%
- Binding human A2A, % @ 1 μM (column headed Ki (nM)) [2]: 21% @ 1 μM
- Ki [3, 4]: 1690 nM

- inhibition at 1 µM [1]: 31%
- Ki [2]: 620 nM
- Ki [3, 4]: 310 nM
Structure (SMILES): c1cncc(Nc2ncc(-c3ccncn3)c(-c3cccs3)n2)c1 [Example 6, N-Pyridin-3-yl-4′-thien-2-yl-4,5′-bipyrimidin-2′-amine]

Structure (SMILES): c1cncc(Nc2ncc(-c3ccnnc3)c(-c3ccco3)n2)c1 [Example 11, 4-(2-Furyl)-5-pyridazin-4-yl-N-pyridin-3-ylpyrimidin-2-amine]
- inhibition at 1 µM [1]: 23%
- Binding human A2A, % @ 1 μM (column headed Ki (nM)) [2]: 17% @ 1 μM
- Ki [3, 4]: 407 nM

Structure (SMILES): [O-][n+]1cccc(Nc2ncc(-c3ccncn3)c(-c3ccco3)n2)c1 [Example 12, 4′-(2-Furyl)-N-(1-oxidopyridin-3-yl)-4,5′-bipyrimidin-2′-amine]
- inhibition at 1 µM [1]: 4%
- Binding human A2A, % @ 1 μM (column headed Ki (nM)) [2]: 7% @ 1 μM
- Ki [3, 4]: 846 nM

Structure (SMILES): c1coc(-c2nc(Nc3cncnc3)ncc2-c2ccncn2)c1 [Example 13, 4′-(2-Furyl)-N-pyrimidin-5-yl-4,5′-bipyrimidin-2′-amine]
- inhibition at 1 µM [1]: 3%
- Binding human A2A, % @ 1 μM (column headed Ki (nM)) [2]: 15% @ 1 μM
- Ki [3, 4]: 1440 nM

Structure (SMILES): O=c1ccc(Nc2ncc(-c3ccncn3)c(-c3ccco3)n2)c[nH]1 [Example 21, 5-{[4′-(2-Furyl)-4,5′-bipyrimidin-2′-yl]amino}pyridin-2(1H)-one]
- inhibition at 1 µM [1]: 0%
- Binding human A2A, % @ 1 μM (column headed Ki (nM)) [2]: 0% @ 1 μM
- Ki [3, 4]: 2790 nM
